This is an account of results in patent publication US8822517B2, “Arylosulfonamides for the treatment of CNS diseases” (Adamed SP. Z O.O., priority 2010, dated 2014).

The subject of one data set is sigma σ receptor. The data set is described as follows: Binding assay σ (non-selective), [3H]DTG, rat cerebral cortex. The following applies: percent inhibition of control specific binding; compounds tested at 1×10^−6 M. In a few lines: (§1)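 Compounds were screened at 1×10^−6 M, and bound radioactivity was measured by scintillation counting. Specific binding equals total binding minus nonspecific binding obtained with an excess of unlabelled ligand.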

Data set [1] addresses T1, serotoninergic receptor 5-HT2C (Homo sapiens, UniProt P28335).
T1 construct: expressed in transfected cells; host or cells: HEK-293 cells
T1 sequence (P28335 33-458): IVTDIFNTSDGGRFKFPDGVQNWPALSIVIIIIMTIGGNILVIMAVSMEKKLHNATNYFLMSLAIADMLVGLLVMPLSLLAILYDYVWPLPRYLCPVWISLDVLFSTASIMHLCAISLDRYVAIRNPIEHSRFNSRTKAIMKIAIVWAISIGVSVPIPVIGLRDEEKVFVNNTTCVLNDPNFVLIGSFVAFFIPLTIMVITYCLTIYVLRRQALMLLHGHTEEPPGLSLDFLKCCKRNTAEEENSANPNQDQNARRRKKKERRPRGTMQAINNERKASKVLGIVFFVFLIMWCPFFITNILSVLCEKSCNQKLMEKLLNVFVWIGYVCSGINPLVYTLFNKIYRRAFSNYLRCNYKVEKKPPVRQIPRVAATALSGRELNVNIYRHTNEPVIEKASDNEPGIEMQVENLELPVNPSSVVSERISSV
Put plainly: Binding assay 5-HT2C (h), [3H]mesulergine, HEK-293 cells. The note with it: read-out: 5-HT2C [%]. In a few lines:
as §1

In data set [2] the target is T2, serotoninergic 5-HT1A receptor (Homo sapiens, UniProt P08908).
T2 sequence (P08908 1-422): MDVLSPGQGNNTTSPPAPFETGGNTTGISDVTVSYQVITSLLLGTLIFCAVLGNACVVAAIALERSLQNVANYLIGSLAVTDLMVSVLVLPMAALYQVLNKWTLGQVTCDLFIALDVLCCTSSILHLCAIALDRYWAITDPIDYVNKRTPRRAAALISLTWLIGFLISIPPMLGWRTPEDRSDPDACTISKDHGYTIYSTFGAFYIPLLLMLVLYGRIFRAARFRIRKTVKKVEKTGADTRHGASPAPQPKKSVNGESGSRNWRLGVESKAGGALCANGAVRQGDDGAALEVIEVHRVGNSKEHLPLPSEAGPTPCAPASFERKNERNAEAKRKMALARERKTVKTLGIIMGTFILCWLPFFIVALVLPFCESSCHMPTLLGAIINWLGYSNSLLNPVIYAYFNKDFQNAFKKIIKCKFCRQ
Put plainly: Binding assay 5-HT1A (h), [3H]8-OH-DPAT, HEK-293 cells. More on the design: expressed in transfected cells; host or cells: HEK-293 cells. The note with it: read-out: 5-HT1A. In a few lines: as §1

The target of another data set is dopaminergic D3 receptor (Homo sapiens, UniProt P35462). Put plainly: Binding assay D3 (h), [3H]methyl-spiperone, CHO cells. More on the design: expressed in transfected cells; host or cells: CHO cells. The note with it: read-out: D3 [%]. In a few lines: as §1
Chain of dopaminergic D3 receptor (P35462 whole entry): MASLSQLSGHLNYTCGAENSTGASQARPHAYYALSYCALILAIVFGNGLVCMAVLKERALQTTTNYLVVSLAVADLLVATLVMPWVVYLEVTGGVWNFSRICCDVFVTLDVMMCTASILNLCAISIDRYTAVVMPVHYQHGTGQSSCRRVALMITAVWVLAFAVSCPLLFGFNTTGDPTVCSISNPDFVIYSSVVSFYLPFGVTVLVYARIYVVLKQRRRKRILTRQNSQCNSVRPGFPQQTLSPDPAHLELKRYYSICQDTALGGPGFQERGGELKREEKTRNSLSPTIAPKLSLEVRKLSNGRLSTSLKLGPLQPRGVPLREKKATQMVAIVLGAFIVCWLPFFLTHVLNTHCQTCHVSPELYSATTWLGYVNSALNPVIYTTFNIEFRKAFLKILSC
For data set [3], the target named is serotoninergic 5-HT7 receptor (Homo sapiens, UniProt P34969). Put plainly: Binding assay 5-HT7 (h), [3H]LSD, CHO cells. More on the design: expressed in transfected cells; host or cells: CHO cells. The note with it: read-out: 5-HT7. In a few lines:
as §1

A further data set concerns adrenergic α1 receptor. The data set is described as follows: Binding assay α1 (non-selective), [3H]prazosin, rat cerebral cortex. The note with it: percent inhibition of control specific binding; compounds tested at 1×10^−6 M. In a few lines: as §1
Data set [4] has as its target serotoninergic 5-HT6 receptor (Homo sapiens, UniProt P50406). Put plainly: Binding assay 5-HT6 (h), [3H]LSD, CHO cells. More on the design: expressed in transfected cells; host or cells: CHO cells. The note with it: read-out: 5-HT6. In a few lines:
as §1

For another data set, the target named is hERG potassium channels (Homo sapiens, UniProt Q12809). The data set is described as follows: hERG potassium channel block, electrophysiology (IonWorks Quattro), CHO cells. On the technique in general: Block of hERG is tested as a sign of cardiac risk.
Chain of hERG potassium channels (Q12809 whole entry): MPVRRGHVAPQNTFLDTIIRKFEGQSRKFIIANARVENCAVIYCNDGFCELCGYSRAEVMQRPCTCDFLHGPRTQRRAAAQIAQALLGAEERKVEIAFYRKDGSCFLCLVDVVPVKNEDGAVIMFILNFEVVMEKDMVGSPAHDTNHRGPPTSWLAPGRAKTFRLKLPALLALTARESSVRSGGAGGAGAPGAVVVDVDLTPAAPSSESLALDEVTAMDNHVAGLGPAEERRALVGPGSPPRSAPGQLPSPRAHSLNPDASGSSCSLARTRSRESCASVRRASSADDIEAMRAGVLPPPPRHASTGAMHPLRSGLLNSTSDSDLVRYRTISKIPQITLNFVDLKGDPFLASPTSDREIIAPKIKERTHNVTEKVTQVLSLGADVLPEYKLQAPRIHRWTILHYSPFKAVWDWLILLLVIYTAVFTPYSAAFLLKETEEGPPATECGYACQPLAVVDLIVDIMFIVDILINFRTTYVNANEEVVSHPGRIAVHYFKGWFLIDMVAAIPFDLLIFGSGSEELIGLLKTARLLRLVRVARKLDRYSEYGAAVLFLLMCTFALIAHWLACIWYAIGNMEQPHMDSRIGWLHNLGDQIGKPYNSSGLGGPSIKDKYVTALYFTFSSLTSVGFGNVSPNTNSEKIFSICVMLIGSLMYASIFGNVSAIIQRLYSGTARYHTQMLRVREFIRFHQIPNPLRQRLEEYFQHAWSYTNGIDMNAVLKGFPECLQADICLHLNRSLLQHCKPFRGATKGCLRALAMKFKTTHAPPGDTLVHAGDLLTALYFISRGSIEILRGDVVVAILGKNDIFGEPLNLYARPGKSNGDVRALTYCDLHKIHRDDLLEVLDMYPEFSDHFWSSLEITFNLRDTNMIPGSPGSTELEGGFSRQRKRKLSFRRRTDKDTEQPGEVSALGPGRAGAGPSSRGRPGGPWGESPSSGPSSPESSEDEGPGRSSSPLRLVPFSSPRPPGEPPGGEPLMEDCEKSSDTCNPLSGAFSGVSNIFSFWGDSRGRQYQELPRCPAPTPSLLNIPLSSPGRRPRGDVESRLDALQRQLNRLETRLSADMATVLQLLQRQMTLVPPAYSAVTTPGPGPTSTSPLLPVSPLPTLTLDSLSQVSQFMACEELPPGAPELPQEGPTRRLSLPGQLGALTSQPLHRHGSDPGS
For data set [5], the target named is T2, serotoninergic 5-HT1A receptor. Put plainly: Cellular functional assay, serotoninergic 5-HT1A receptor (agonism/antagonism). The following applies: for inhibition at 1 µM: CHO, read-out: 5-HT1A-antag. [%]; for activation at 1 µM: agonist effect, percent of control specific agonist response (100 nM 8-OH-DPAT for control), 1×10^−6 M, 5-HT1A (h), CHO cells, read-out: 5-HT1A-ag [%]. In kind it is cell-based. The protocol: The compounds were tested at the concentration of 1×10^−6M.
In the Tables ag refers to agonism, and antag to antagonism).

Data set [6] concerns the target histaminergic H1 receptor (Homo sapiens, UniProt P35367). Put plainly: Binding assay H1 (h), [3H]pyrilamine, HEK-293 cells. The note with it: read-out: H1 [%]. More on the design: expressed in transfected cells; host or cells: HEK-293 cells. In a few lines: as §1
Where [7] appears, read: % block of hERG current, cloned hERG channels in CHO cells, IonWorks Quattro.

Where two headings read alike, the source gives them in different places.

Chain of serotoninergic 5-HT7 receptor (P34969 whole entry): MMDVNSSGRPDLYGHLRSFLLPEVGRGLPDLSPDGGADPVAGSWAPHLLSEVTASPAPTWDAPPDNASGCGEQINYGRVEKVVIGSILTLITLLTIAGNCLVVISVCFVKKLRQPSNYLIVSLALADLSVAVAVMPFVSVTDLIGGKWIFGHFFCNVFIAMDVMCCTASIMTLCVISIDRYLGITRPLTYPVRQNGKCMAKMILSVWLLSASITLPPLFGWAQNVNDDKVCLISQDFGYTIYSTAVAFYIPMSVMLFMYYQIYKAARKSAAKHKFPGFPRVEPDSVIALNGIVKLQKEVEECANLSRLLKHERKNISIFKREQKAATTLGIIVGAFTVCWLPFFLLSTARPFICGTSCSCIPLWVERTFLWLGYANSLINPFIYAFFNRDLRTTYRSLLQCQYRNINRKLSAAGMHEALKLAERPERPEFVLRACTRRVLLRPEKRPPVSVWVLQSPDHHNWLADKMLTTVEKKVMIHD
Chain of serotoninergic 5-HT6 receptor (P50406 whole entry): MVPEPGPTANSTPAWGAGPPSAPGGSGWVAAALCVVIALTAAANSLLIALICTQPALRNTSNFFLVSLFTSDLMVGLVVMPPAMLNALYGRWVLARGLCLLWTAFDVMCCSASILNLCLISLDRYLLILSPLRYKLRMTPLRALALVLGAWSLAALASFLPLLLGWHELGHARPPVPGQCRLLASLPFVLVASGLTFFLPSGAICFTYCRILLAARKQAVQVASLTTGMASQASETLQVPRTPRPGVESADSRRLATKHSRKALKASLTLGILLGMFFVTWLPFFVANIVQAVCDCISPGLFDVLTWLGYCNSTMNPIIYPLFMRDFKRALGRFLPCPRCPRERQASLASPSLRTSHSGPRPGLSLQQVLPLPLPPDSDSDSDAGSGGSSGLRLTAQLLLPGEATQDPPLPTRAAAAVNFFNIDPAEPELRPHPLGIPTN
Chain of histaminergic H1 receptor (P35367 whole entry): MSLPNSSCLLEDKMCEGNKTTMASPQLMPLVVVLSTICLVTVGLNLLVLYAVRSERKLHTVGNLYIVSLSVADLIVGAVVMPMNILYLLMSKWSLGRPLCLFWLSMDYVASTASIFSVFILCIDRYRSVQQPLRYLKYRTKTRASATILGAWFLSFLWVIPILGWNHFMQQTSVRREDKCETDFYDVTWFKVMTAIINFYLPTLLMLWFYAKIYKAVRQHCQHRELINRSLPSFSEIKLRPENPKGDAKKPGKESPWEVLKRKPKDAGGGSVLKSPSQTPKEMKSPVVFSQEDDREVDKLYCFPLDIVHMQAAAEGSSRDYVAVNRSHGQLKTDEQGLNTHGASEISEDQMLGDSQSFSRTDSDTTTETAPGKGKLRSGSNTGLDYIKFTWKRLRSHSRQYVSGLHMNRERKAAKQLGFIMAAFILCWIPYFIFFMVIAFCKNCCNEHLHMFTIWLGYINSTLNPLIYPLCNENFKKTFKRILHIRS
Method for hERG potassium channels: Ability to block hERG potassium channels was determined using the electrophysiological method and cloned hERG potassium channels (KCNH2 gene, expressed in CHO cells) as biological material. The effects were evaluated using IonWorks™ Quattro system (MDS-AT).
hERG current was elicited using a pulse pattern with fixed amplitudes (conditioning prepulse: −80 mV for 25 ms; test pulse: +40 mV for 80 ms) from a holding potential of 0 mV. hERG current was measured as a difference between the peak current at 1 ms after the test step to +40 mV and the steady-state current at the end of the step to +40 mV.
Data acquisition and analyses was performed using the IonWorks Quattro™ system operation software (version 2.0.2; Molecular Devices Corporation, Union City, Calif.). Data were corrected for leak current.

For `O=S(=O)(NCCCCN1CCN(c2cccc3[nH]ccc23)CC1)c1cccc(Cl)c1` [Compound 113, N-[4-[4-(1H-Indol-4-yl)piperazin-1-yl]butyl]-3-chlorobenzenesulphonamide], the “σ [%]” value in the data set with sigma σ receptor was found to be 92%. Also, the inhibition at 1 µM in [1] worked out at 10%; in data set [2], 100%; at dopaminergic D3 receptor, 99%; in data set [3] it was 97%; in data set [4], 74%; in [5] it was 92%. In addition, the inhibition at 1 µM in [6] came to 60%. Moreover, the “α1 [%]” value in the data set with adrenergic α1 receptor came to 99%. Moreover, the “hERG [%]” value on hERG potassium channels (setting [7]) worked out at 16%. The activation at 1 µM in data set [5] turned out to be 32%.

Consider `Cc1cccc(S(=O)(=O)NCCCCN2CCN(c3nsc4ccccc34)CC2)c1` [Compound 3, N-(4-(4-(1,2-Benzothiazol-3-yl)piperazin-1-yl)butyl)-3-methylbenzenesulphonamide], for which the “σ [%]” value in the data set on sigma σ receptor turned out to be 66%. Further, the inhibition at 1 µM in [1] turned out to be 77%; in data set [2], 98%; at dopaminergic D3 receptor, 98%; in data set [3] it was 97%; in data set [4], 83%; in data set [6], 94%. Also, the “α1 [%]” value in the data set on adrenergic α1 receptor was found to be 100%. In addition, on hERG potassium channels, the “hERG [%]” value is recorded as 17%.

As for `N#Cc1cccc(S(=O)(=O)NCCCN2CCC(c3noc4cc(F)ccc34)CC2)c1` [Compound 338, 3-cyano-N-[3-[4-(6-fluoro-1,2-benzoxazol-3-yl)piperidin-1-yl]propyl]benzenesulphonamide], in the data set with sigma σ receptor, the “σ [%]” value was 72%. The inhibition at 1 µM stood at 76% in data set [1]; 80% in [2]; 100% at dopaminergic D3 receptor; 98% in [3]; 94% in data set [4]; 95% in data set [6]. The “α1 [%]” value in the data set on adrenergic α1 receptor was found to be 99%. In addition, at hERG potassium channels (setting [7]), the “hERG [%]” value came to 40.5%.

With `O=S(=O)(NCCCCN1CCN(c2nsc3ccccc23)CC1)c1cccc2ccccc12` [Compound 1, N-(4-(4-(1,2-Benzothiazol-3-yl)piperazin-1-yl)butyl)naphthalene-1-sulphonamide], the “σ [%]” value in the data set on sigma σ receptor was found to be 54%. Further, the inhibition at 1 µM in data set [1] was 80%; in data set [2], 96%; at dopaminergic D3 receptor it was 96%; in data set [3], 96%; in data set [4] it was 95%; in data set [6] it was 91%. Further, in the data set with adrenergic α1 receptor, the “α1 [%]” value is on record as 99%. The “hERG [%]” value on hERG potassium channels (setting [7]) worked out at 16%.

For `O=S(=O)(NCCCCN1CCN(c2nsc3ccccc23)CC1)c1ccc2cc(Cl)ccc2c1` [Compound 61, N-[4-[4-(1,2-Benzothiazol-3-yl)piperazin-1-yl]butyl]-6-chloro-naphthalene-2-sulphonamide], in the data set on sigma σ receptor, the “σ [%]” value stood at 46%. Further, the inhibition at 1 µM in data set [1] is 95%; in data set [2], 94%; at dopaminergic D3 receptor, 96%; in data set [3] it was 100%; in data set [4] it was 96%; in data set [5], 20%. Further, in data set [6], the inhibition at 1 µM came to 97%. Moreover, the “α1 [%]” value in the data set with adrenergic α1 receptor is on record as 94%. For the same molecule, the “hERG [%]” value at hERG potassium channels (setting [7]) stood at 12%. Besides, the activation at 1 µM in [5] is 75%.

Turning to `O=S(=O)(NCCCCN1CCN(c2cccc3[nH]ccc23)CC1)c1cc2ccc(Cl)cc2s1` [Compound 363, 6-Chloro-N-[4-[4-(1H-indol-4-yl)piperazin-1-yl]butyl]benzothiophene-2-sulphonamide], the “σ [%]” value in the data set with sigma σ receptor was 96%. In addition, the inhibition at 1 µM in data set [1] came to 57%; in [2], 101%; on dopaminergic D3 receptor, 101%; in data set [3] it was 98%; in data set [4], 84%; in data set [5] it was 27%. In addition, the inhibition at 1 µM in data set [6] turned out to be 70%. In addition, the “α1 [%]” value in the data set with adrenergic α1 receptor amounted to 92%. Also, the “hERG [%]” value on hERG potassium channels (setting [7]) is given as 0%. The activation at 1 µM in data set [5] was 78%.

`O=S(=O)(NCCCCN1CCN(c2noc3ccccc23)CC1)c1ccc2ccccc2c1` [Compound 14, N-(4-(4-(1,2-Benzoxazol-3-yl)piperazin-1-yl)butyl)naphthalene-2-sulphonamide]: the “σ [%]” value in the data set on sigma σ receptor stood at 40%. For the same molecule, the inhibition at 1 µM in data set [1] is 51%; in data set [2] it was 88%; on dopaminergic D3 receptor, 97%; in data set [3] it was 99%; in [4], 99%; in data set [6], 88%. In addition, in the data set on adrenergic α1 receptor, the “α1 [%]” value is recorded as 102%. Also, the “hERG [%]” value at hERG potassium channels (setting [7]) is reported as −1.4%.

Take `Cc1c(S(=O)(=O)NCCCCN2CCC(c3noc4cc(F)ccc34)CC2)sc2ccc(F)cc12` [Compound 101, 5-Fluoro-N-[4-[4-(6-fluoro-1,2-benzoxazol-3-yl)piperidin-1-yl]butyl]-3-methylbenzothiophene-2-sulphonamide]: the “σ [%]” value with sigma σ receptor is 70%. For the same molecule, the inhibition at 1 µM came to 80% in [1]; 82% in [2]; 92% on dopaminergic D3 receptor; 98% in [3]; 98% in [4]; 97% in data set [6]. For the same molecule, the “α1 [%]” value in the data set on adrenergic α1 receptor is 99%. In addition, on hERG potassium channels (setting [7]), the “hERG [%]” value amounted to 14%.

For the molecule `O=S(=O)(NCCCN1CCC(c2noc3cc(F)ccc23)CC1)c1ccc(F)c(Cl)c1` [Compound 331, 3-Chloro-4-fluoro-N-[3-[4-(6-fluoro-1,2-benzoxazol-3-yl)piperidin-1-yl]propyl]benzenesulphonamide], the inhibition at 1 µM in data set [1] worked out at 82%; in [2], 82%; on dopaminergic D3 receptor it was 100%; in data set [3], 99%; in data set [4], 97%; in data set [6], 97%. The “hERG [%]” value on hERG potassium channels (setting [7]) is recorded as 32%.

Consider `O=S(=O)(NCCCCN1CCN(c2cccc3[nH]ccc23)CC1)c1ccccc1` [Compound 27, N-{4-[4-(1H-Indol-4-yl)piperazin-1-yl]butyl}benzenesulphonamide], for which the “σ [%]” value with sigma σ receptor worked out at 78%. Besides, the inhibition at 1 µM in data set [1] is -1%; in [2], 99%; on dopaminergic D3 receptor it was 96%; in data set [3], 92%; in [4], 34%; in data set [5], 48%. In [6], the inhibition at 1 µM came out at 27%. Also, the “α1 [%]” value with adrenergic α1 receptor is 96%. Further, in data set [5], the activation at 1 µM turned out to be 56%.

With `O=S(=O)(NCCCCN1CCN(c2nsc3ccccc23)CC1)c1cc2ccccc2s1` [Compound 239, N-[4-[4-(1,2-Benzothiazol-3-yl)piperazin-1-yl]butyl]benzothiophene-2-sulphonamide], in the data set on sigma σ receptor, the “σ [%]” value worked out at 69%. Besides, the inhibition at 1 µM in data set [1] was 88%; in [2], 98%; on dopaminergic D3 receptor, 102%; in [3], 98%; in [4], 96%; in data set [5], 58%. The inhibition at 1 µM in data set [6] turned out to be 98%. Also, in the data set with adrenergic α1 receptor, the “α1 [%]” value is recorded as 99%. Also, the activation at 1 µM in data set [5] was determined as 7%.
